{"source": "paper PMC3685872", "about": "(Bioorganic & medicinal chemistry, 2013)", "key": {"[1]": {"system": "prostate cancer LNCaP cells", "details": "compared with standard drug doxorubicin; ref [12]; cited from earlier work"}, "CMV": {"system": "CMV", "details": "cited from earlier work"}, "[2]": {"system": "Jurkat T cell acute lymphoblastic leukemia cell line", "experiment": "Anti-leukemia AlamarBlue assay in Jurkat cells", "format": "cell-based, human", "details": "for loss in anti-leukemic potency compared to dimer 838 / loss in anti-leukemic potency compared to oxygenated counterpart: Jurkat cells; for loss in anti-leukemic potency compared to dimer 838: relative to 838; for loss in anti-leukemic potency compared to oxygenated counterpart: phosphoryl oxygen replaced with sulfur"}, "[3]": {"system": "PHA-stimulated peripheral blood mononuclear cells (PBMCs)", "experiment": "Toxicity to nonmalignant PHA-stimulated PBMCs", "format": "cell-based", "details": "Homo sapiens, PBMC, 48 h, read-out: PHA-stimulated PBMC IC50"}}, "data": [{"smiles": "C[C@H]1[C@@H](CC(COP(=O)(Oc2ccccc2)Oc2ccccc2)C[C@H]2O[C@@H]3O[C@@]4(C)CC[C@H]5[C@H](C)CC[C@@H]([C@H]2C)[C@@]35OO4)O[C@@H]2O[C@@]3(C)CC[C@H]4[C@H](C)CC[C@@H]1[C@@]24OO3", "note": "(stereo partly drawn) [compound 838, trioxane dimer diphenyl phosphate ester]", "values": [{"measurement": "potency at inhibiting growth of LNCaP cells", "setting": "[1]", "result": "more potent than the standard drug doxorubicin"}, {"measurement": "selectivity index (anti-CMV/cytotoxicity)", "setting": "CMV; ref [10]", "result": "approximately 1500"}]}, {"smiles": "C[C@H]1[C@@H](CC(COP(=O)(OC2CCCCC2)OC2CCCCC2)C[C@H]2O[C@@H]3O[C@@]4(C)CC[C@H]5[C@H](C)CC[C@@H]([C@H]2C)[C@@]35OO4)O[C@@H]2O[C@@]3(C)CC[C@H]4[C@H](C)CC[C@@H]1[C@@]24OO3", "note": "(stereo partly drawn) [compound 851, dimer dicyclohexylphosphate ester]", "values": [{"measurement": "loss in anti-leukemic potency compared to dimer 838", "setting": "[2]", "result": "about half as efficacious"}]}, {"smiles": "C[C@H]1[C@@H](CC(COP2(=O)Oc3ccccc3-c3ccccc3O2)C[C@H]2O[C@@H]3O[C@@]4(C)CC[C@H]5[C@H](C)CC[C@@H]([C@H]2C)[C@@]35OO4)O[C@@H]2O[C@@]3(C)CC[C@H]4[C@H](C)CC[C@@H]1[C@@]24OO3", "note": "(stereo partly drawn) [compound 836, dimer biphenylphosphate ester]", "values": [{"measurement": "loss in anti-leukemic potency compared to dimer 838", "setting": "[2]", "result": "about half as efficacious"}]}, {"smiles": "Cc1cccc(C)c1OP(=O)(OCC(C[C@H]1O[C@@H]2O[C@@]3(C)CC[C@H]4[C@H](C)CC[C@@H]([C@H]1C)[C@@]24OO3)C[C@H]1O[C@@H]2O[C@@]3(C)CC[C@H]4[C@H](C)CC[C@@H]([C@H]1C)[C@@]24OO3)Oc1c(C)cccc1C", "note": "[compound 895, dimer bis-(2,6-dimethylphenyl)phosphate ester]", "values": [{"measurement": "loss in anti-leukemic potency compared to dimer 838", "setting": "[2]", "result": "comparable potency"}]}, {"smiles": "CC(C)c1ccc(OP(=O)(OCC(C[C@H]2O[C@@H]3O[C@@]4(C)CC[C@H]5[C@H](C)CC[C@@H]([C@H]2C)[C@@]35OO4)C[C@H]2O[C@@H]3O[C@@]4(C)CC[C@H]5[C@H](C)CC[C@@H]([C@H]2C)[C@@]35OO4)Oc2ccc(C(C)C)cc2)cc1", "note": "[compound 923, dimer bis-(4-isopropylphenyl)phosphate ester]", "values": [{"measurement": "loss in anti-leukemic potency compared to dimer 838", "setting": "[2]", "result": 5, "unit": "fold"}]}, {"smiles": "C[C@H]1[C@@H](CC(COP2(=S)Oc3ccccc3-c3ccccc3O2)C[C@H]2O[C@@H]3O[C@@]4(C)CC[C@H]5[C@H](C)CC[C@@H]([C@H]2C)[C@@]35OO4)O[C@@H]2O[C@@]3(C)CC[C@H]4[C@H](C)CC[C@@H]1[C@@]24OO3", "note": "(stereo partly drawn) [compound 853, dimer biphenylthiophosphate ester]", "values": [{"measurement": "loss in anti-leukemic potency compared to oxygenated counterpart", "setting": "[2]", "result": "~ 9 fold"}]}, {"smiles": "CO[C@H]1O[C@@H]2O[C@@]3(C)CC[C@H]4[C@H](C)CC[C@@H]([C@H]1C)[C@@]24OO3", "note": "[Artemether, artemether, reference compound]", "values": [{"measurement": "Anti-leukemia IC50", "setting": "[2]; Jurkat T-ALL cells, 48 hours of drug treatment, AlamarBlue, average of triplicate experiments", "result": "essentially inactive"}, {"measurement": "activity against CMV", "setting": "CMV; as previously determined, ref [9]", "result": "weak activity"}]}, {"smiles": "C[C@H]1[C@@H](CC(COP(=S)(Oc2ccccc2)Oc2ccccc2)C[C@H]2O[C@@H]3O[C@@]4(C)CC[C@H]5[C@H](C)CC[C@@H]([C@H]2C)[C@@]35OO4)O[C@@H]2O[C@@]3(C)CC[C@H]4[C@H](C)CC[C@@H]1[C@@]24OO3", "note": "(stereo partly drawn) [compound 855, dimer diphenylthiophosphate ester]", "values": [{"measurement": "loss in anti-leukemic potency compared to oxygenated counterpart", "setting": "[2]", "result": "~ 18 fold"}]}, {"smiles": "C[C@H]1[C@@H](CC(COP(=O)(O)Oc2ccccc2)C[C@H]2O[C@@H]3O[C@@]4(C)CC[C@H]5[C@H](C)CC[C@@H]([C@H]2C)[C@@]35OO4)O[C@@H]2O[C@@]3(C)CC[C@H]4[C@H](C)CC[C@@H]1[C@@]24OO3", "note": "(stereo partly drawn) [compound 762, monophenylphosphate ester]", "values": [{"measurement": "loss in anti-leukemic potency compared to dimer 838", "setting": "[2]", "result": 70, "unit": "fold"}, {"measurement": "IC50", "setting": "[3]", "result": "~40", "unit": "µM"}]}]}
